Legend:
Format in all cases: cell-based, human
HeLa cells [1] = assay: Cellular uptake by flow cytometry on HeLa cells; details: 30 min; for Cellular uptake in the presence of serum: α-MEM(+), lowest studied concentration (2.5 μM)
Description: HeLa cells (8.0 × 10^4/well) in α-MEM( +) were cultured in 24-well microplates overnight at 37 °C. Cells were treated with fluorescently-labelled peptides (2.5, 5 and 10 μM) in α-MEM( +) and α-MEM without 10% BS [α-MEM(–)], respectively, for 30 min at 37 °C. After being washed with phosphate-buffered saline (PBS), cells were incubated with 0.01% trypsin in PBS for 10 min at 37 °C. The collected cells were then centrifuged at 800 g for 5 min at 4 °C, washed twice with PBS, and subjected to flow cytometry analysis (Attune NxT Flow Cytometer, ThermoFisher). Each sample was analysed over 10,000 events.

HeLa cells [2] = assay: Confocal microscopy of internalisation into HeLa cells; details: 37 °C
Description: HeLa cells (2.0 × 10^5 cells) seeded in 35-mm glass-bottomed dishes (Iwaki) were cultured at a 37 °C incubator for 24 h. The cells were then incubated with peptide in α-MEM( +) and α-MEM(–) for 30 min at 37 °C or 4 °C. After washing with PBS( +) containing 0.5% (w/v) heparin, intracellular distribution of the fluorescently-labelled peptides was analysed without fixing using a confocal microscope (FV1000, Olympus). For time-lapse imaging, the cells were placed at 37 °C in a microchamber (MI-IBC-IF, Olympus) attached on the stage of the inverted microscope. The cells were then treated with 5 µM of Dabcyl–Arg6–Lys(Rh)–NH2 or Dabcyl–Arg4–Lys(Cf)–NH2 in α-MEM( +) or α-MEM(–). Time 0 represents the image immediately after the addition of conjugates.

HL-60 cells = assay: In vitro cytostatic activity (MTT) on HL-60
Description: The cells (HL-60 or MCF-7) were grown to confluency and were plated into 96-well plate with initial cell number of 5 × 10^3 per well. After 24 h incubation at 37 °C, cells were treated with the compounds at 1.28 × 10^–3–100 μM concentration range for 3 h in 200 μL final volume. Control cells were treated with serum free medium at 37 °C for 3 h. After incubation the cells were washed twice with serum free medium. For the analysis of the in vitro cytostatic effect, cells were cultured for an additional 72 h in serum containing medium. On day 4, MTT assay was carried out to determine the IC50 values of the compounds. Briefly, 45 μL of MTT solution was added to each well (2 mg/mL, dissolved in serum-free medium). Following the 4 h incubation, plates were centrifuged at 900 g for 5 min, and the supernatant was removed. The precipitated purple crystals were dissolved in 100 μL DMSO and the absorbance was determined at λ = 540 nm and λ = 620 nm using ELISA plate reader (iEMSReader, Labsystems, Finland). The percent of cytostasis was calculated using the following equation: Cytostatic effect (%) = [1 − (ODtreated/ODcontrol)] × 100; where ODtreated and ODcontrol correspond to the optical densities of the treated and the untreated control cells, respectively. In each case three independent experiments were carried out with four parallel measurements. […] The curves were defined using MicrocalTM Origin (version 9.2) software: cytostasis was plotted as a function of concentration, fitted to a sigmoidal curve, and based on this curve, the IC50 value was determined.

Molecule: Ac–RRRRRRK(Rh)–NH2 [Ac–Arg6–Lys(Rh)–NH2, acetylated hexaarginine with carboxytetramethylrhodamine on lysine]
- Cellular uptake in the presence of serum (HeLa cells [1]): undetectable
- Intracellular distribution (HeLa cells [2]; α-MEM(–), 5 and 10 μM, 30 min): punctate distribution

Molecule: CN(C)c1ccc(C(=O)N[C@@H](CCCNC(=N)N)C(=O)N[C@@H](CCCNC(=N)N)C(=O)N[C@@H](CCCNC(=N)N)C(=O)N[C@@H](CCCNC(=N)N)C(=O)N[C@@H](CCCNC(=N)N)C(=O)N[C@@H](CCCNC(=N)N)C(=O)N[C@@H](CCCCNC(=O)c2ccc3c(c2)C(=O)OC32c3ccc(O)cc3Oc3cc(O)ccc32)C(N)=O)cc1 [Dmab–Arg6–Lys(Cf)–NH2]
- Effect on the cell viability (morphology, number of cells) (HeLa cells [2]; 1-20 μM, confocal microscopy): no effect on the cell viability

Molecule: Dabcyl–RRRRRRK(Rh)–NH2 [Dabcyl–Arg6–Lys(Rh)–NH2, Dabcyl-modified hexaarginine with carboxytetramethylrhodamine on lysine]
- Internalisation in the absence of serum compared to serum (+) (HeLa cells [1]; 2.5 µM, 37 °C): twice
- Cellular uptake, times higher than hexaarginine's (HeLa cells [1]; absence of serum, 2.5 µM, 37 °C): 3 times
- Cellular uptake in the presence of serum (HeLa cells [1]): markedly pronounced
- Time needed to get well detectable signal with diffuse cytosolic distribution (HeLa cells [2]; 5 μM, α-MEM(+), time-lapse imaging): 25 min
- Threshold concentration above which distribution becomes diffuse (HeLa cells [2]; 30 min, confocal microscopy): under 5 μM
- Intracellular distribution (HeLa cells [2]; α-MEM(+) with serum, 10 µM, 30 min): diffuse cytosolic localisation
- Intracellular distribution (HeLa cells [2]; α-MEM(–), 2.5 μM, 30 min): diffuse distribution pattern
- Morphology of the cells (HeLa cells [2]; α-MEM(–), 5 and 10 μM, 30 min, cell number also decreased): dramatically changed

Molecule: CN(C)c1ccc(/N=N/c2ccc(C(=O)N[C@@H](CCCNC(=N)N)C(=O)N[C@@H](CCCNC(=N)N)C(=O)N[C@@H](CCCNC(=N)N)C(=O)N[C@@H](CCCNC(=N)N)C(=O)N[C@@H](CCCNC(=N)N)C(=O)N[C@@H](CCCNC(=N)N)C(=O)N[C@@H](CCCCN)C(N)=O)cc2)cc1 [Dabcyl–Arg6–Lys–NH2]
- IC50 (HL-60 cells; HL-60, 3 h incubation, then 3 days in serum-containing medium, MTT assay, ± sd, three independent experiments with four parallels): > 100 µM
- Cytostatic effect on HL-60 cells (HL-60 cells; up to c = 100 μM): no cytostatic effect
